In article PMC12598805, “Crystal Structure–Activity Relationship of Some MeO Phenylacrylonitriles: Dual Antimicrobial–Cytotoxic Effects and in Silico Perspectives” (ChemistryOpen, 2025):
In brackets after ≈: the same amount, converted by molar mass.

Experiments:
[1] = system: Micrococcus luteus (NRRL-B-1018); experiment: Agar diffusion, zone of inhibition; type: cell-based; settings: M.luteus, compounds at 50 mg mL^−1; for zone of inhibition at 50 mg/mL: Micrococcus luteus, NRRLB1018
Text: The antibacterial and antifungal activities were reported utilizing the method described by the Clinical & Laboratory Standards Institute.^[ [31], [32] ^] Agar diffusion method was used to determine the antimicrobial activity of the synthesized substances. The media used were mueller hinton agar (MHA) for bacteria and sabouraud‐dextrose agar (SDA) for fungi (Merck), as recommended by the manufacturer.
The synthesized compounds were initially investigated for their antimicrobial activity to elucidate the potential therapeutic utility against various pathogenic microbes using the agar plate diffusion method. The compounds were tested at a concentration of 50 mg mL^−1, and the antibiotics (ampicillin, kanamycin, and amphotericin B) were used at 5 mg mL^−1. […] K.pneumoniae and B.cereus were resistant to ampicillin, while they were susceptible to kanamycin with inhibition values of 30 and 26 mm, respectively. No antimicrobial activity of the compounds was observed against E.faecalis, S.typhimurium, K.pneumoniae, and for the fungus compared to Amphotericin B (20 mm). […]
Micrococcus luteus (NRRL-B-1018) […]
ATCC: American Type Culture Collection; NRRL: Northern Regional Research Laboratory The compounds 2(a-c) obtained could only be completely solubilised with dimethyl sulphoxide (DMSO) and the highest possible stock solutions of 50 mg.mL-1 were prepared. To these wells 50 μl of the previously prepared substances were transferred using sterile micropipette tips. For comparison, Ampicillin and kanamycin antibiotics for bacteria and Amphotericin B antibiotics for fungus were used as positive controls and DMSO was used as negative control. The prepared petri plates were kept at +4°C for about 1 hour and then the bacterial cultures were incubated at 37°C for 18-24 hours and mould cultures at 27-30°C for 48-72 hours. The zones formed were measured millimetrically with callipers. The experiments were performed with three repetitions. […]

[2] = system: Bacillus cereus (ATCC-10876); experiment: Broth microdilution MIC; type: cell-based; settings: Bacillus cereus, ATCC10876; B.cereus; read-out: MIC
Description: Bacillus cereus (ATCC-10876) […]
ATCC: American Type Culture Collection; NRRL: Northern Regional Research Laboratory The compounds 2(a-c) obtained could only be completely solubilised with dimethyl sulphoxide (DMSO) and the highest possible stock solutions of 50 mg.mL-1 were prepared. […]
3.1. Determination of Minimum Inhibition Concentration (MIC)
The minimum inhibition concentration (MIC) values of the compounds 2(a-c) against the test bacteria used in the study were determined according to the broth microdilution method.[1-2] MHB or SDB was used as test medium and bacterial and yeast suspensions were prepared at 0.5 Mc Farland concentration for each test bacteria. Double layer serial dilutions were prepared in "U" type 96-well microtiter plates. Medium+bacteria suspensions containing only medium in the first row, medium+bacteria in the second row and the final concentrations of the synthesised substances in the other rows between 25 mg.mL-1 and […] were added to the wells with a final volume of 200
μL. Ampicillin, Kanamycin and Amphotericin B standard antibiotics were used as positive controls.
Bacteria were incubated at 37±0.1 °C and C. albicans at 30±0.1 °C for 24-48 hours and the lowest concentration without growth was determined as MIC. Tests were performed in two parallel runs and mean values were given as a result. […]

[3] = Cytotoxicity on healthy cells, CCK8 cell viability; type: cell-based, mouse; settings: mouse, L929 mouse fibroblast cells, read-out: Cytotoxic activity IC50; for IC50 at 24 h: L929, 24 h; for IC50 at 48 h: L929, 48 h
Text: (§1) We investigated the cytotoxic effects of acrylonitrile derivatives 2(a–c) on human lung carcinoma (A549, CCL‐185) cells purchased from American Culture Collection and human breast carcinoma (MCF‐7) cells purchased from Republic of Turkey Ministry of Agriculture and Forestry Şap Institute, (HUKUK, 00092502), In addition, mouse fibroblast cells (L929, CCL‐1) purchased from American Culture Collection were used to observe the effects of the compounds on healthy cells. In 25 T Flask, A549 cells were grown in dulbecco's modified eagle's medium, MCF‐7, and L929 cells were grown in eagle's minimum essential medium (EMEM), 10% fetal bovine serum and 1% Penicillin‐Streptomycin at 37 °C in a 5% CO2 and 100% humidified incubator. Cell proliferation was checked every day. Cells were taken into the experiment when the cell density reached 70% to 80%. (See Supporting Information for experimental preparation of biological studies).
(§2) The compounds 2a, 2b, and 2c were dissolved in 99.8% Dimethyl sulfoxide (DMSO) respectively, as
(§3) 10 mM main stock. To prepare the doses of acrylonitrile compounds used in the experiment to be
(§4) applied to the cells, five different concentrations of 31.25; 62.5; 125; 250 and 500 μM were prepared
(§5) by diluting the main stock solutions (10 mM) with the medium selected according to the cells. 5-
(§6) Fluorouracil (5-FU) was selected as a positive control in the study. After the 5-FU main stock solution
(§7) was dissolved with DMSO to be 10 mM, the concentrations to be used were diluted with the selected
(§8) media and made ready for the experimental plan. The concentrations used for 5-FU were prepared in
(§9) the same doses used for acrylonitrile derivatives. For the negative control group, groups containing
(§10) only media and no substance were used. Prepared acrylonitrile compounds and 5-FU concentrations
(§11) were added to the wells in three replicates for each dose, and their effects on cell viability at 24 and 48
(§12) Trypan blue solution (Gibco, 1525061) was used to distinguish between living and dead cells in the
(§13) study. Trypan blue passes uncontrollably through the membrane of dead cells that have lost their cell
(§14) membrane integrity and stains the cell blue. Living cells, on the other hand, are not stained because
(§15) Live cell counts were performed using trypan blue using a
(§16) cell counter (Logos Luna II).
(§17) In order to detach the cells adhering to the flasks from the bottom, 500 μL of 0.25% Trypsin-EDTA
(§18) (Gibco, 15400054) solution was added and treated for five minutes.
(§19) detach from the bottom under an inverted microscope (Zeiss Primovert, Germany), medium containing
(§20) 10% FBS was added. After centrifugation at 300 g for 5 minutes and discarding the medium, 1 mL of
(§21) medium was added and the cells were seeded into 96-well culture dishes as 1x10^4 cells in 100 μL per
(§22) Cell Counting Kit 8 (CCK8; Medchem, 146436) was used to determine cell viability. After adding 20 μL
(§23) of CCK8 solution to each well in the dark, 96-well culture dishes were wrapped with aluminum foil and
(§24) kept in a CO2 incubator at 37 °C for 2 hr. Then, it was automatically read with a microplate reader
(§25) (Chromate) at 450 and 630 nm wavelengths. The following formula was used to determine cell
(§26) % Viability = (Sample Well−Blank) (Negative Control−Blank)×100 (1)
(§27) The half-maximal inhibitory concentration (IC50) was calculated as 50% cell death causing dose
(§28) compared to the control group. All data are given as the mean percent fraction of control ± SEM.
(§29) Statistical analysis was done by one-way analysis of variance (ANOVA), followed by Tukey’s multiple
(§30) comparison tests. IBM SPSS Statistics 22 was used to utilize statistical analysis. […]

[4] = system: mouse fibroblast cells (L929, CCL‐1); experiment: Cytotoxicity on healthy cells, CCK8 cell viability; type: cell-based
Text: as §1, §2, §3, §4, §5, §6, §7, §8, §9, §10, §11, §12, §13, §14, §15, §16, §17, §18, §19, §20, §21, §22, §23, §24, §25, §26, §27, §28, §29, §30

| SMILES | zone of inhibition [1] [mm] | zone of inhibition at 50 mg/mL [1] [mm] | MIC [2] [mg/mL] | IC50 at 24 h [3] [µM] | IC50 at 48 h [3] [µM] | decrease in cell viability ([4]; L929, 24 h, 31.25 μM) [%] | decrease in cell viability ([4]; L929, 24 h, 62.5 μM) [%] | decrease in cell viability ([4]; L929, 24 h, 125 μM) [%] | decrease in cell viability ([4]; L929, 24 h, 250 μM) [%] | decrease in cell viability ([4]; L929, 24 h, 500 μM) [%] | decrease in cell viability ([4]; L929, 48 h, 31.25 μM) [%] | decrease in cell viability ([4]; L929, 48 h, 62.5 μM) [%] | decrease in cell viability ([4]; L929, 48 h, 125 μM) [%] | decrease in cell viability ([4]; L929, 48 h, 250 μM) [%] | decrease in cell viability ([4]; L929, 48 h, 500 μM) [%] | IC50 ([4]; L929, 24 h, read-out: Cytotoxic activity IC50) [µM] |
| --- | --- | --- | --- | --- | --- | --- | --- | --- | --- | --- | --- | --- | --- | --- | --- | --- |
| COc1ccc(C=C(C#N)c2ccccc2)cc1 [2a, 3‐(4‐methoxyphenyl)‐2‐phenylacrylonitrile] | 14 ± 0.71 | 14 | 12.5 (≈ 53.1 mM) | 351 | < 31.2 | 13 | 19 | 16 | 35 | 73 | 52 | 53 | 55 | 54 | 87 |  |
| COc1ccc(/C=C(\C#N)c2ccc(F)cc2)cc1 [2b] | 14 ± 0.71 | 14 | 12.5 (≈ 49.4 mM) | < 250 | < 31.2 | 45 | 44 | 43 | 50 | 75 | 52 | 54 | 53 | 53 | 80 | 250 |
| COc1ccc(/C=C(\C#N)c2cc(C(F)(F)F)cc(C(F)(F)F)c2)cc1 [2c] | 15 ± 0.71 | 15 | 12.5 (≈ 33.7 mM) | 410 | 391 | 8 | 10 | 19 | 12 | 71 | 14 | 16 | 20 | 24 | 80 |  |
